Assay results reported in ChEMBL document CHEMBL5154911, “Palmatine Derivatives as Potential Antiplatelet Aggregation Agents via Protein Kinase G/Vasodilator-Stimulated Phosphoprotein and Phosphatidylinositol 3-Kinase/Akt Phosphorylation” (J Med Chem, 2022).
The source made the active and inactive calls. The rule behind the calls is not given here.

Assays:
[1] = Acute toxicity in Kunming mouse assessed as effect on creatine at 250 to 1000 mg/kg, po measured after 14 days; assay type: organism-based; conditions: in vivo, 336 h, dose 250-1000 mg/kg, time 14 day
[2] = Metabolic stability in Sprague-Dawley rat liver microsomes assessed as microsomal intrinsic clearance at 1 uM incubated upto 60 min in presence of NADPH by LC-MS/MS analysis; assay type: ADME, Microsome; conditions: read-out: CLH
[3] = tested on: Platelet; assay: Antiplatelet activity against ADP-induced C57BL/6J mouse platelet aggregation assessed as reduction in integrin alphaIIbbeta3 surface levels by measuring increase median fluorescence intensities at 10 uM incubated for 10 min by flow cytometry analysis; assay type: functional, cell-based
[4] = Acute toxicity in Kunming mouse assessed as effect on glutamic oxalacetic transaminase at 250 to 1000 mg/kg, po measured after 14 days; assay type: organism-based; conditions: in vivo, 336 h, dose 250-1000 mg/kg, time 14 day
[5] = Metabolic stability in Sprague-Dawley rat liver microsomes assessed as liver intrinsic clearance at 1 uM incubated upto 60 min in presence of NADPH by LC-MS/MS analysis; assay type: ADME, Microsome; conditions: 1 h
[6] = tested on: Platelet; assay: Antiplatelet activity against ADP-induced C57BL/6J mouse platelet aggregation assessed as reduction on platelet aggregation at 2.5 to 10 uM preincubated for 10 mins followed by ADP addition; assay type: functional, cell-based; conditions: dose 2.5-10 µM, DDE = dose-dependent effect
[7] = tested on: Mus musculus; assay: Antithrombotic activity in BALB/c mouse model of carrageenan-induced thrombus formation assessed as inhibition of thrombosis rate in tail at 100 mg/kg, iv measured after 14 days; assay type: functional, organism-based; conditions: time 14.0 day
[8] = Acute toxicity in Kunming mouse assessed as effect on blood urea nitrogen at 250 to 1000 mg/kg, po measured after 14 days; assay type: organism-based; conditions: in vivo, 336 h, dose 250-1000 mg/kg, time 14 day
[9] = tested on: Platelet; assay: Inhibition of ADP-induced Akt activation in C57BL/6J mouse platelet assessed as reduction of AKT phosphorylation at Ser473 by western blot analysis; assay type: cell-based
[10] = Metabolic stability in CD-1 mouse liver microsomes assessed as liver intrinsic clearance at 1 uM incubated upto 60 min in presence of NADPH by LC-MS/MS analysis; assay type: ADME, Microsome; conditions: 1 h
[11] = Metabolic stability in CD-1 mouse liver microsomes assessed as microsomal intrinsic clearance at 1 uM incubated upto 60 min in presence of NADPH by LC-MS/MS analysis; assay type: ADME, Microsome; conditions: read-out: CLH
[12] = tested on: Mus musculus; assay: Antiplatelet activity against ADP-induced C57BL/6J mouse platelet aggregation assessed as inhibition of platelet aggregation at 100 mg/kg, po measured after 2 weeks; assay type: functional, organism-based
[13] = Metabolic stability in human liver microsomes assessed as microsomal intrinsic clearance at 1 uM incubated upto 60 min in presence of NADPH by LC-MS/MS analysis; assay type: ADME, Microsome; conditions: read-out: CLH
[14] = tested on: Mus musculus; assay: Antiplatelet activity against ADP-induced C57BL/6J mouse platelet aggregation assessed as reduction in integrin alphaIIbbeta3 surface level at 100 mg/kg, po measured after 2 weeks by flow cytometry analysis; assay type: functional, organism-based
[15] = Antiplatelet activity against ADP-induced C57BL/6J mouse platelet aggregation assessed as maximal aggregration rate at 10 uM preincubated for 10 mins followed by ADP addition relative to control; assay type: functional
[16] = Acute toxicity in po dosed Kunming mouse assessed as lethal dose measured after 14 days; assay type: organism-based; conditions: in vivo, time 14 day
[17] = tested on: Mus musculus; assay: Antithrombotic activity in BALB/c mouse model of carrageenan-induced thrombus formation assessed as reduced thrombus area in tail at 100 mg/kg, iv measured after 14 days by H and E staining based assay; assay type: functional, organism-based; conditions: time 14.0 day
[18] = tested on: Mus musculus; assay: Antithrombotic activity in BALB/c mouse model of carrageenan-induced thrombus formation assessed as reduced serum P-selectin level at 100 mg/kg, iv measured after 14 days by ELISA; assay type: functional, organism-based; conditions: time 14.0 day
[19] = Metabolic stability in CD-1 mouse liver microsomes assessed as half life at 1 uM incubated upto 60 min in presence of NADPH by LC-MS/MS analysis; assay type: ADME, Microsome
[20] = tested on: Platelet; assay: Antiplatelet activity against ADP-induced C57BL/6J mouse platelet aggregation assessed as reduction in P-selectin surface levels by measuring increase median fluorescence intensities at 10 uM incubated for 10 min by flow cytometry analysis; assay type: functional, cell-based
[21] = tested on: Lung; assay: Antithrombotic activity in BALB/c mouse model of carrageenan-induced thrombus formation assessed as reduced thrombus formation in lung at 100 mg/kg, iv measured after 14 days by H and E staining based assay; assay type: functional, organism-based; conditions: time 14.0 day
[22] = Antiplatelet activity against ADP-induced C57BL/6J mouse platelet aggregation assessed as inhibition of platelet aggregation at 10 uM preincubated for 10 mins followed by ADP addition relative to control; assay type: functional; parameters: scale not given: the % may be the effect or the level left
[23] = tested on: Platelet; assay: Inhibition of ADP-induced Akt activation in C57BL/6J mouse platelet assessed as reduction of AKT phosphorylation at Ser473 at 0.5 to 20 uM by western blot analysis; assay type: cell-based; conditions: dose 0.5-20 µM, DDE = dose-dependent effect
[24] = Metabolic stability in human liver microsomes assessed as compound remaining at 1 uM measured after 60 mins in presence of NADPH by LC-MS/MS analysis; assay type: ADME, Microsome; conditions: read-out: Stability
[25] = Metabolic stability in CD-1 mouse liver microsomes assessed as compound remaining at 1 uM measured after 60 mins in presence of NADPH by LC-MS/MS analysis; assay type: ADME, Microsome; conditions: read-out: Stability
[26] = Acute toxicity in Kunming mouse assessed as effect on glutamic pyruvic transaminase at 250 to 1000 mg/kg, po measured after 14 days; assay type: organism-based; conditions: in vivo, 336 h, dose 250-1000 mg/kg, time 14 day
[27] = Metabolic stability in human liver microsomes assessed as half life at 1 uM incubated upto 60 min in presence of NADPH by LC-MS/MS analysis; assay type: ADME, Microsome
[28] = Binding affinity to sensorchip-immobilized PI3K (unknown origin) by surface plasmon resonance analysis; parameters: species or system Homo sapiens
[29] = Metabolic stability in human liver microsomes assessed as liver intrinsic clearance at 1 uM incubated upto 60 min in presence of NADPH by LC-MS/MS analysis; assay type: ADME, Microsome; conditions: 1 h
[30] = Metabolic stability in Sprague-Dawley rat liver microsomes assessed as half life at 1 uM incubated upto 60 min in presence of NADPH by LC-MS/MS analysis; assay type: ADME, Microsome
[31] = tested on: Platelet; assay: Antiplatelet activity against ADP-induced C57BL/6J mouse platelet aggregation assessed as increase in VASP phosphorylation level at 0.5 to 20 uM by western blotting analysis; assay type: functional, cell-based; conditions: dose 0.5-20 µM
[32] = Metabolic stability in Sprague-Dawley rat liver microsomes assessed as compound remaining at 1 uM measured after 60 mins in presence of NADPH by LC-MS/MS analysis; assay type: ADME, Microsome; conditions: read-out: Stability
[33] = tested on: Mus musculus; assay: Antiplatelet activity against ADP-induced C57BL/6J mouse platelet aggregation assessed as reduction in P-selectin surface levels at 100 mg/kg, po measured after 2 weeks by flow cytometry analysis; assay type: functional, organism-based
[34] = tested on: Platelet; assay: Inhibition of ADP-induced Akt activation in C57BL/6J mouse platelets assessed as reduction in phosphorylation Akt level at Ser473 at 100 mg/kg, po measured after 2 weeks by western blot analysis; assay type: organism-based
[35] = Cytotoxicity against human HUVEC cells assessed as cell vaibility at 100 uM by MTS assay; assay type: toxicity, cell-based; conditions: read-out: Activity
[36] = tested on: Mus musculus; assay: Antithrombotic activity in BALB/c mouse model of carrageenan-induced thrombus formation assessed as reduced serum P-selectin level at 20 mg/kg, iv measured after 14 days by ELISA; assay type: functional, organism-based; conditions: time 14.0 day
[37] = tested on: Platelet; assay: Inhibition of ADP-induced Akt activation in C57BL/6J mouse platelets assessed as reduction in phosphorylation Akt level at Ser473 at 20 mg/kg, po measured after 2 weeks by western blot analysis; assay type: organism-based
[38] = tested on: Mus musculus; assay: Antiplatelet activity against ADP-induced C57BL/6J mouse platelet aggregation assessed as reduction in integrin alphaIIbbeta3 surface level at 20 mg/kg, po measured after 2 weeks by flow cytometry analysis; assay type: functional, organism-based
[39] = tested on: Mus musculus; assay: Antiplatelet activity against ADP-induced C57BL/6J mouse platelet aggregation assessed as inhibition of platelet aggregation at 20 mg/kg, po measured after 2 weeks; assay type: functional, organism-based
[40] = tested on: Mus musculus; assay: Antiplatelet activity against ADP-induced C57BL/6J mouse platelet aggregation assessed as reduction in P-selectin surface levels at 20 mg/kg, po measured after 2 weeks by flow cytometry analysis; assay type: functional, organism-based
[41] = tested on: Mus musculus; assay: Antithrombotic activity in BALB/c mouse model of carrageenan-induced thrombus formation assessed as inhibition of thrombosis rate in tail at 20 mg/kg, iv measured after 14 days; assay type: functional, organism-based; conditions: time 14.0 day
[42] = tested on: Lung; assay: Antithrombotic activity in BALB/c mouse model of carrageenan-induced thrombus formation assessed as reduced thrombus formation in lung at 20 mg/kg, iv measured after 14 days by H and E staining based assay; assay type: functional, organism-based; conditions: time 14.0 day

Structure (SMILES): CCCOc1c(OC)ccc2cc3[n+](cc12)CCc1cc(OC)c(OC)cc1-3.[Br-]
- Activity [1]: Non-Toxic
- microsomal CLint at 1 µM [2]: < 9.6 µL/min/mg
- Activity [3]: Active
- Activity [4]: Non-Toxic
- CLH [5]: < 17.3 mL/min/kg
- Activity [6]: Dde
- inhibition [7]: Active
- Activity [8]: Non-Toxic
- inhibition [9]: Active
- CLH [10]: 123 mL/min/kg
- microsomal CLint at 1 µM [11]: 31 µL/min/mg
- Activity [12]: Active
- microsomal CLint at 1 µM [13]: < 9.6 µL/min/mg
- Activity [14]: Active
- %max [15]: 26.9%
- LD50 at 336 h [16]: 1000 mg/kg
- inhibition [17]: Active
- Activity [18]: Active
- half-life at 1 µM [19]: 0.745 h
- Activity [20]: Active
- Activity [21]: Active
- Activity [22]: 37.8%
- inhibition [23]: Dde
- remaining at 1 h, 1 µM [24]: 117%
- remaining at 1 h, 1 µM [25]: 39%
- Activity [26]: Non-Toxic
- half-life at 1 µM [27]: > 2.42 h
- Kd [28]: 25.5 µM
- CLH [29]: < 8.6 mL/min/kg
- half-life at 1 µM [30]: > 2.42 h
- Activity [31]: Active
- remaining at 1 h, 1 µM [32]: 79%
- Activity [33]: Active
- inhibition [34]: Active
- viability at 100 µM [35]: 90%

Structure (SMILES): COc1ccc2cc3[n+](cc2c1OC)CCc1cc2c(cc1-3)OCO2 [BERBERINE]
- Activity [7]: Active
- inhibition [9]: Active
- Activity [12]: Active
- Activity [14]: Active
- %max [15]: 27.5%
- Activity [18]: Active
- Activity [21]: Active
- Activity [33]: Active
- inhibition [34]: Active

Structure (SMILES): CC(=O)Oc1ccccc1C(=O)O [ASPIRIN]
- Activity [36]: Active
- inhibition [37]: Active
- Activity [38]: Active
- inhibition [9]: Active
- %max [15]: 26.4%
- Activity [39]: Active
- Activity [40]: Active
- Activity [41]: Active
- Activity [42]: Active
